The source of these data is article PMC5041077, “Metabolic profile and safety of piperlongumine” (Scientific Reports, 2016).

One series deals with CYP2C9 (Homo sapiens, UniProt P11712). The series can be described thus: in vitro.
In series [1] the test system is human liver microsomes. The series is described as follows: Time course of metabolite formation. Conditions: PPL at S50, 2 mg/mL HLM. It counts as in vitro ADME. Here is the method:
The formation of metabolites was investigated through the application of three distinct mass spectrometry instruments. The incubation time was set at 50 min and 2 mg/mL of microsomal protein was employed in these experiments. The increase in the incubation time and microsomal protein aimed to produce a higher amount of metabolites. The concentration of PPL was 283.6 μM. After metabolism reaction, in order to favor a higher recovery of metabolites from microsomal medium liquid-liquid extraction was performed using 1 mL of ethyl acetate as the extractor solvent. The samples (n = 10) were shaken for 10 min at 1500 rpm using an orbital agitator and centrifuged for 5 min at 2860 × g. After that, 750 μL of supernatant was collected, and each one was pooled from ten single reactions. Next, the samples were evaporated to dryness by using a gentle stream of compressed air. To facilitate the identification of compounds that have hydroxyl groups, after sample preparation and before GC-MS analysis, silylation reactions were performed in the extracted samples. The residues were reconstituted in 50 μL of pyridine and 200 μL of BSTFA solution containing 2% TMCS. Following, the samples were slightly agitated and then incubated in a water bath at 75 °C for 120 min. […]
The incubation time was evaluated in different times (5, 10, 20, 40 and 50 min) in order to investigate the formation of metabolites. […]

Series [2] has as its system recombinant human CYP (rhCYP) isoforms. The series is described as follows: P450 reaction phenotyping by rhCYP isoforms. It counts as in vitro ADME. The following applies: 50 min incubation. Here is the method:
The capacity of selected major human P450 isoforms to metabolize PPL was screened using human recombinant isoenzymes. Briefly, PPL (S50 concentration) was added into a 200 μL incubation mixture containing P450 isoform (50 pmol/mL for CYP3A4, CYP1A2, CYP2C9, 2B6, 2D6 and 2C19; 25 pmol/mL for CYP2C8 and […]; final concentrations), NADPH regeneration system solution A (1.3 mM NADP^+ and 3.3 mM glucose-6-phosphate), NADPH regeneration system solution B (0.4 U/mL glucose-6-phosphate dehydrogenase), potassium phosphate buffer pH 7.4 (100 mM), except for CYP2C9 where the phosphate buffer was substituted by tris buffer pH 7.5 (100 mM), maintaining for 50 min in shaking water bath. In order to enhance the sensibility one sample was pooled from 4 single reactions. PPL metabolites were analyzed by a GC-MS as described previously. The MS peak areas of PPL metabolites were recorded to determine the contributions of the P450 enzymes.
(§1) Phenotyping study at 50 min. In order to evaluate the CYP isoforms involved in M4 formation, a similar study as described in the main text was performed, except by the time of incubation of 50 min (Fig. S13).

For another series, the system named is CYP3A4. The series is described as follows: P450 reaction phenotyping by selective human enzyme inhibitors. It counts as in vitro ADME. The following applies: human, human liver microsomes, probe PPL (formation of metabolite M2). Here is the method:
(§2) This study was performed by evaluating the PPL metabolism and the produced metabolites in the presence of these specific inhibitors. […] The incubation protocol was the same for all inhibitors, except for orphenadrine, which was pre-incubated with all incubation constituents at 37 °C for 15 min before the reaction was initiated by the addition of substrate. The concentration of PPL used in this study corresponded to its S50/2. […] In order to enhance the sensibility one sample was pooled from 4 single reactions. Sample preparations and GC-MS analysis were performed according to assay previous described. The results were expressed as % of remain activity and compared with control sample lacking the inhibitors.
as §1

The test system of series [3] is human liver microsomes. Described as above. It counts as in vitro ADME. The following applies: PPL at S50/2, 10 min incubation. Here is the method: as §2, §1
A further series relates to epoxide hydrolase. The series is described as follows: Epoxide hydrolase involvement on M2 catalysis (valproic acid). Format: in vitro ADME, human. Conditions: valproic acid 550 μM, PPL 63.8 µM, 50 min, 2 mg/mL HLM, with NADPH. Here is the method: Epoxide hydrolase involvement on M2 catalysis. To evaluate the epoxide hydrolase involvement on M2 catalysis (Fig. S14), PPL (63.8 µM) was incubated alone or in the presence of valproic acid (550 μM), an epoxide hydrolase inhibitor. The incubation was carried out for 50 minutes at 37°C with 2 mg/mL HLM. Sample preparations and chromatographic analysis were performed according to assay described in phenotyping study session. The results were expressed as % of remain activity and compared with control sample with the absence of the inhibitor.

CYP2C9, sequence (P11712 whole entry): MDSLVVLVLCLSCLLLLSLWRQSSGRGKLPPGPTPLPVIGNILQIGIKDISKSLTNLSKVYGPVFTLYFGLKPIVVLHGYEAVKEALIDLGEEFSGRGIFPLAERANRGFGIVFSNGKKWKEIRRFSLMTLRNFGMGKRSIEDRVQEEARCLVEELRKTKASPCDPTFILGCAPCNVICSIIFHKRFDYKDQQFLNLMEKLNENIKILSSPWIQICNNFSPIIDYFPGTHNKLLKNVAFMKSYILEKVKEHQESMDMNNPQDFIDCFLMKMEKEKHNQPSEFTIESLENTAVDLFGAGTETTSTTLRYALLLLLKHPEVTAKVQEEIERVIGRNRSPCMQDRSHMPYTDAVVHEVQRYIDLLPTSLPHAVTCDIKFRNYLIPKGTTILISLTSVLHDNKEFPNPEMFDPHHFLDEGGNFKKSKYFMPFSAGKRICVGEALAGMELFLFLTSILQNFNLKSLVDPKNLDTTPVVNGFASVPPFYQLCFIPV

Take `O=C(O)Cc1ccccc1Nc1c(Cl)cccc1Cl` [Diclofenac, diclofenac]: the Michaelis constant (Km) at CYP2C9 was 47 µM.
Turning to `COc1cc(/C=C/C(=O)N2CCC3OC3C2=O)cc(OC)c1OC` (centres unmarked) [M2], the “incubation time of maximum production of the metabolite” value with human liver microsomes [1] is recorded as 20 min.
As to `COc1cc(/C=C/C(=O)N2CCC(O)C(O)C2=O)cc(OC)c1OC` (centres unmarked) [M4], in the series with human liver microsomes [1], the “incubation time after which the metabolite starts to be produced (lag-time)” value is above 40 min. Besides, the “recombinant isoforms that contributed to M4 formation” value in series [2] is “CYP2C19, CYP2D6, CYP2E1, CYP2B6 and CYP2C8”.
`CC(=O)N1CCN(c2ccc(OCC3COC(Cn4ccnc4)(c4ccc(Cl)cc4Cl)O3)cc2)CC1` (centres unmarked) [ketoconazole]: in the series with CYP3A4, the inhibition at 10 min, 2 µM amounted to 83%. Also, in the series on human liver microsomes [3] (ketoconazole 2 μM), the “inhibitory effect on the formation of metabolite M3” value is given as “significant inhibitory effect”.
With `CCCC(CCC)C(=O)O` [valproic acid], the “amount of metabolite M4 produced in presence of valproic acid” value in the series on epoxide hydrolase is on record as “same amount produced”.
Turning to `O=c1cc(-c2ccccc2)oc2c1ccc1ccccc12` [α-naphthoflavone], the “inhibition of the formation of metabolite M1” value in the series on human liver microsomes [3] (α-naphthoflavone (CYP1A2 inhibitor) 1 μM) is given as “strong inhibition”.
